Data: patent publication US9156830B2, “Heterocyclic compounds” (SHIONOGI & CO., LTD., priority 2011, dated 2015)

Legend:
[1] = biological target: T1, Human TRPV1 (Homo sapiens (Human), UniProt Q8NER1); assay: pH-Based Assay (Protocol 2), Ca2+ response in TRPV1/CHO cells; type: cell-based; settings: pH 5.0-5.1 (H2SO4)
Experimental: The TRPV1/CHO cell line was generated as described below. The following assay was conducted to determine the concentration of sulfuric acid that would give rise to a pH that induces a […] response optimal to test compounds for their effect on TRPV1. […] For one half of a 96-well plate one agonist solution was used, for the other half the other agonist solution. The agonist solutions were obtained by diluting sulfuric acid (H2SO4, 1 M) with measuring buffer. The concentrations for the two agonist solutions were determined as described above in Section 2 of Protocol 2. The sulfuric acid concentrations between the two agonist solutions differed by 0.5 mM. […] The thereby-obtained solutions were further diluted in measuring buffer (1:100) as 10× stock serial dilutions with a DMSO concentration of 1%. 10 μL of a 10× stock was added into each well at step 3.3.(4) of Protocol 2. Thus, the final concentrations of antagonists ranged from 1000-0.977 nM containing 0.1% DMSO (FIG. 3B). […] (3) The cells were washed twice with 150 μL of measuring buffer (mentioned in 2.2.(3) of Protocol 2, no probenecid). The wells were subsequently refilled with 70 μL of measuring buffer. (4) Either 10 μL of measuring buffer or 10 μL of 10× stock serial dilution of test compound (described in 3.2. above) were applied to each well. Usually, only one test compound was tested per 96-well plate. The number of replicates per 96-well plate for a particular antagonist at a particular concentration was 7×2 since two different sulfuric acid concentrations were used per 96-well plate (N=7×2)(FIG. 3). Step (5) was the same as 2.2.(4) above. (6) Fura-2 fluorescent intensity was monitored as described in 2.2.(5) above. […] Steps (7) and (8) were as described in 2.2.(6) and 2.2.(7) above, respectively. […] FIG. 3) were measured one by one using a portable pH meter.

[2] = Measurement of Body Temperature Increase; type: in vivo; settings: Crl/SD rats, oral, 1 mg/mL in 0.5% methylcellulose at 10 mL/kg; rectal temperature 0.5, 1 and 2 hrs after administration; difference from vehicle group average
Experimental: Selection of rats (Crl/SD rats, 7 weeks, male) for this study is based on rectal body temperature measured during the morning of the day of dosing. In addition, animals selected for this study are acclimated to both the rectal measurement procedure and to being handled and dosed to minimize spontaneous, stress-induced, increases in body temperature. The study is conducted in the animal care laboratories where the room temperature and humidity are kept. The rats are free to move and food and water during the study. Each rat is numbered with color line on the tail, housed in each cage and permittted the normal range of movement. Immediately before each body temperature is measured, they transferred to a single cage at each measurement. To reduce stress which affected the body temperature, the rats are covered with towels at the measurement. The thermistor probe is then carefully inserted into the rectum of each rat and left in place until the value on the digital display had stabilized.
On the day before dosing, rectal body temperatures are measured at 9:00, 10:00, 11:00, 12:30, 13:30, 14:30 and 15:30 to familiarize the animals with the measurement procedure prior to administration of the test or control treatments. The rats are also dosed by oral gavage without vehicle at 12:30 to acclimate and familiarized the animals with the handling and dosing procedure.
On the day of dosing, only rats whose rectal body temperatures are within the range of 37.0° C. to 37.7° C. are selected for this study. Rectal body temperatures are measured at 9:00, 10:00 and 11:00. Rats whose rectal body temperatures are over 37.9° C. at 10:00, and are outside the range of 37.0° C. to 37.7° C. at 11:00 are excluded from the study. The selected rats are divided to several groups based on their rectal body temperatures at 11:00. Rectal body temperatures of the selected rats are measured again at 12:30, and any rats whose rectal body temperature is 38.0° C. or greater are excluded from the study.
Following the group assignment, test compounds or vehicle is administrated to the rats. Each test compound is dissolved in 0.5% methylcellulose and the final concentration of the compound is adjusted to 1 mg/mL. Test compound is orally administrated in a volume 10 mL/kg once. 10 mL/kg of vehicle (0.5% methylcellulose) is administered to the vehicle group. The rectal body temperatures are measured 0.5, 1 and 2 hrs after the administration. The study is conducted in the animal care laboratories where the room temperature and humidity are kept.
Body temperature increase (ΔTb) is calculated from the difference from an average of the vehicle group at each time point. The body temperature increases (ΔTb) of Compounds I-20, I-25, I-26, I-28, I-29, I-33, I-34, I-36, I-37, I-63 and I-64 were less than 0.3° C.

[3] = biological target: T1, Human TRPV1; assay: Capsaicin-Based Assay (Protocol 2), TRPV1/CHO cells; type: cell-based; settings: capsaicin 100 nM final, Fluo-4, read-out: TRPV1 IC50 Potency Capsaicin-Based Assay IC50
Experimental: The TRPV1/CHO cell line was generated as described below. […] Subsequently, the cells were loaded by incubation in 0.1 mL of wash buffer containing Fluo-4 at 3 μM final concentration. After 1 hour, the cells were washed twice with 0.2 mL wash buffer and resuspended in 0.1 mL wash buffer. The plates were then transferred to a Fluorescence Imaging Plate Reader (Molecular Devices). Fluorescence intensity was monitored for 15 seconds to establish a baseline. […] The final concentration of the compound was adjusted to range from 100 μM to 1.5625 μM. […] Data were collected over the entire time course and analyzed using Excel and the curve-fitting formula GraphPad Prism.

T1 sequence (Q8NER1 whole entry): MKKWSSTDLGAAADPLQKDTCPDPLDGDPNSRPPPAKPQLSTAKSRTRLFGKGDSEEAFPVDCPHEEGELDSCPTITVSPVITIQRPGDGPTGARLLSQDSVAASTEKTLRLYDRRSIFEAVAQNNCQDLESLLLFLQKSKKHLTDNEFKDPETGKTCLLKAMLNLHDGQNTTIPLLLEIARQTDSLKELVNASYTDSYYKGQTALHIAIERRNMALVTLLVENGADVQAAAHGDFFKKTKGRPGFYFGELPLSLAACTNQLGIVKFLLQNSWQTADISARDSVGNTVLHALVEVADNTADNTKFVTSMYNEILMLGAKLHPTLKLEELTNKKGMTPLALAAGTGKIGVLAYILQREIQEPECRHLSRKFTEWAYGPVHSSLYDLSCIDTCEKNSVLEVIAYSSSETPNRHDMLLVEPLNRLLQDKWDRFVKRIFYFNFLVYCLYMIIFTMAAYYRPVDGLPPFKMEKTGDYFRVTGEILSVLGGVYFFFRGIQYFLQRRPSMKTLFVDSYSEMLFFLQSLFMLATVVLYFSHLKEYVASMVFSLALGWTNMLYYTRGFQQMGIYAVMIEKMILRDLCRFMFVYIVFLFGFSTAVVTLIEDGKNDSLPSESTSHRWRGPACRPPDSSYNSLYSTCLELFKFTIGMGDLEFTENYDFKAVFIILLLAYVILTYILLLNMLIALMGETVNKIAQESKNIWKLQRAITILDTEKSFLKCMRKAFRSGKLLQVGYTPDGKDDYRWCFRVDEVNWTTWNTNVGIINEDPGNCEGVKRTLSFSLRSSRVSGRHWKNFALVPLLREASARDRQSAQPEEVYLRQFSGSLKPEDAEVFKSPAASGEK

O=C(Nc1ccc(C(F)(F)F)c(Cl)c1)N1CC=C(c2ncc(-c3nc(CO)no3)cc2Cl)CC1 [Compound I-36, N-(3-chloro-4-(trifluoromethyl)phenyl)-4-(3-chloro-5-(3-(hydroxymethyl)-1,2,4-oxadiazol-5-yl)pyridin-2-yl)-5,6-dihydropyridine-1(2H)-carboxamide]
IC50 ([1]; Fura-2, read-out: IC50 value by the pH-Based Assay): ≤ 100 nM | Body temperature increase (ΔTb) [2]: less than 0.3 °C

O=C(Nc1nc2ccc(F)cc2s1)N1CC=C(c2ncc(-c3cc(CO)on3)cc2Cl)CC1 [Compound I-34, 4-(3-chloro-5-(5-(hydroxymethyl)isoxazol-3-yl)pyridin-2-yl)-N-(6-fluorobenzo[d]thiazol-2-yl)-5,6-dihydropyridine-1(2H)-carboxamide]
IC50 ([1]; Fura-2, read-out: TRPV1 IC50 Potency pH-Based Assay IC50): 33.6 nM | Body temperature increase (ΔTb) [2]: less than 0.3 °C

O=C(Nc1ccc(C(F)(F)F)cn1)N1CC=C(c2ncc(-c3noc(CO)n3)cc2Cl)CC1 [Compound I-26, 4-(3-chloro-5-(5-(hydroxymethyl)-1,2,4-oxadiazol-3-yl)pyridin-2-yl)-N-(5-(trifluoromethyl)pyridin-2-yl)-5,6-dihydropyridine-1(2H)-carboxamide]
Body temperature increase (ΔTb) [2]: less than 0.3 °C

O=C(Nc1ccc(C(F)(F)F)cn1)N1CC=C(c2ncc(-c3nc(CO)no3)cc2F)CC1 [Compound I-63, 4-(3-fluoro-5-(3-(hydroxymethyl)-1,2,4-oxadiazol-5-yl)pyridin-2-yl)-N-(5-(trifluoromethyl)pyridin-2-yl)-5,6-dihydropyridine-1(2H)-carboxamide]
Body temperature increase (ΔTb) [2]: less than 0.3 °C

O=C(Nc1ccc(C(F)(F)F)cn1)N1CC=C(c2ncc(-c3cc(CO)on3)cc2Cl)CC1 [Compound I-33, 4-(3-chloro-5-(5-(hydroxymethyl)isoxazol-3-yl)pyridin-2-yl)-N-(5-(trifluoromethyl)pyridin-2-yl)-5,6-dihydropyridine-1(2H)-carboxamide]
Body temperature increase (ΔTb) [2]: less than 0.3 °C

O=C(Nc1ccc(C(F)(F)F)cn1)N1CC=C(c2ncc(-c3nc(CO)no3)cc2Cl)CC1 [Compound I-37, 4-(3-chloro-5-(3-(hydroxymethyl)-1,2,4-oxadiazol-5-yl)pyridin-2-yl)-N-(5-(trifluoromethyl)pyridin-2-yl)-5,6-dihydropyridine-1(2H)-carboxamide]
Body temperature increase (ΔTb) [2]: less than 0.3 °C

O=C(Nc1ccc(C(F)(F)F)c(Cl)c1)N1CC=C(c2ncc(-c3nnc([C@H](O)CO)o3)cc2Cl)CC1 [Compound I-20, (R) —N-(3-chloro-4-(trifluoromethyl)phenyl)-4-(3-chloro-5-(5-(1,2-dihydroxyethyl)-1,3,4-oxadiazol-2-yl)pyridin-2-yl)-5,6-dihydropyridine-1(2H)-carboxamide]
IC50 [3]: 147 nM | Body temperature increase (ΔTb) [2]: less than 0.3 °C

O=C(Nc1ccc(C(F)(F)F)c(Cl)c1)N1CC=C(c2ncc(-c3cc(CO)on3)cc2Cl)CC1 [Compound I-29, N-(3-chloro-4-(trifluoromethyl)phenyl)-4-(3-chloro-5-(5-(hydroxymethyl)isoxazol-3-yl)pyridin-2-yl)-5,6-dihydropyridine-1(2H)-carboxamide]
Body temperature increase (ΔTb) [2]: less than 0.3 °C

O=C(Nc1ccc(C(F)(F)F)c(Cl)c1)N1CC=C(c2ncc(-c3ocnc3CO)cc2Cl)CC1 [Compound I-28, N-(3-chloro-4-(trifluoromethyl)phenyl)-4-(3-chloro-5-(4-(hydroxymethyl)oxazol-5-yl)pyridin-2-yl)-5,6-dihydropyridine-1(2H)-carboxamide]
Body temperature increase (ΔTb) [2]: less than 0.3 °C

O=C(Nc1ccc(C(F)(F)F)c(Cl)c1)N1CC=C(c2ncc(-c3noc(CO)n3)cc2Cl)CC1 [Compound I-25, N-(3-chloro-4-(trifluoromethyl)phenyl)-4-(3-chloro-5-(5-(hydroxymethyl)-1,2,4-oxadiazol-3-yl)pyridin-2-yl)-5,6-dihydropyridine-1(2H)-carboxamide]
Body temperature increase (ΔTb) [2]: less than 0.3 °C
